Measured values reported in BindingDB's records for doi:10.1021/jm050686b (Rheinische Friedrich-Wilhelms-Universitat Bonn, 2005).

Target: Papain (Carica papaya) (UniProt P00784)
Test: Enzyme activities were calculated from kinetic measurements performed by spectrophotometric detection of the product p-nitroaniline (pNA) at wavelength of 405 nm. Progress curves were monitored over 10 min. Rate was determined for 7 different inhibitor concentrations in duplicate. The apparent inhibition constant, Ki (app) was determined by fitting

Chain of Papain (Carica papaya) (P00784 whole entry, looked up): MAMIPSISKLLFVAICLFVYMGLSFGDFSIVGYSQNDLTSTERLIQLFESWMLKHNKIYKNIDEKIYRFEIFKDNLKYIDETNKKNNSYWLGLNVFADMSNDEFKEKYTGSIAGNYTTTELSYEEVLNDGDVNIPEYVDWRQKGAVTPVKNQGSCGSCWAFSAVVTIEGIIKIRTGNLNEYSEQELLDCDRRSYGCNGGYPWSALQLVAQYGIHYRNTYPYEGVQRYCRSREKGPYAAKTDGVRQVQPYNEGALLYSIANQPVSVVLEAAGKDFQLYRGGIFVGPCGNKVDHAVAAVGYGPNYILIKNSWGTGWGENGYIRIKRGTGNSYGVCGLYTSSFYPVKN

CC(C)(C)OC(=O)N[C@@H](Cc1ccsc1)C(=O)NCC#N [tert-butyl N-[(1S)-1-[(cyanomethyl)carbamoyl]-2-(thiophen-3-yl)ethyl]carbamate]
Ki: 45 µM
